This is an account of results in patent publication US20260232594A1, “EXCIPIENT COMPOSITION FOR THE PREPARATION OF AMORPHOUS SOLID DISPERSONS/SOLUTIONS” (UNIVERSITÄTSKLINIKUM HAMBURG-EPPENDORF, priority 2023, published 2026).

Data set [1] can be described thus: Extrusion experiments with BZ in place of CD, extrudate analyzed via HPLC. The class given is physicochemical. The note with it: extrusion 125-155° C. As for the experimental part: For LD and BZ analytics a separate HPLC method was developed for the same equipment. The mobile phase was a 95:5 mixture of aforementioned hydrogen phosphate buffer (pH 2.5) and methanol. LD was detected at 280 nm and BZ at 268 nm. Retention times were 3.41 min (BZ) and 4.41 min (LD). The calibration for LD was the same as in the above-named method and BZ was calibrated in the same range as CD.
Following the dissolution experiments and the subsequently adapted thermoanalyses to further investigate the thermolability of CD, extrusion experiments with BZ were conducted. For these experiments, the CD (P25/29-M) was substituted with BZ. The formulation was extruded between 125-155° C. and the extrudate analyzed via HPLC.

Data set [2] can be described thus: 3D printing of tablets by direct powder extrusion (DPE): printability and API tolerance. The note with it: printing temperature 180° C. The text has this:
The previously blended powders were 3D printed using a M3DIMAKER™ equipped with a DPE printhead coupled with a 0.4 mm nozzle (FabRx Ltd., London, United Kingdom). Computer-aided design (CAD) models of tablets were designed using Autodesk Tinkercad (Autodesk Inc., Mill Valley, CA, U.S.A.) and processed with Repetier-Host software (Hot-World GmbH & Co. KG, Willich, Germany). To enhance powder flow, the M3DIMAKER™ was modified with a stirring element 4 (see FIG. 1).
Tablets were printed using the following parameters: printing temperature: 180° C.; first layer height: 0.6 mm, layer height: 0.15-0.30 mm (adaptive slicing), infill: 60-100%, travel speed 70 mm/s, first layer speed 5 mm/s, perimeter speed 7.5-15 mm/s, infill speed: 15-20 mm/s with zero (Oblongs) or one (Cylinders and Donuts) top layer, two bottom layers and two shells.

Data set [3] is classed as physicochemical. As for the experimental part:
DSC analyzes were carried out with a DSC 1 device (Mettler-Toledo, LLC, Columbus, OH, USA) operated with STARe Software V16.10. Each single component of the formulation as well as the powder blend and the extruded filament (both P25/29-M) were analyzed. Three different methods were utilized. Nitrogen was used as a purging gas at a flow rate of 50 mL/min. Every sample was heated to 250° C. (10° C./min) and kept at this temperature for 5 min. CD, LD, mannitol and the powder blend were also heated (10° C./min) to and kept at 185° C. (10 min), then cooled to 25° C. (20° C./min) and kept at this temperature for 5 min and reheated to 185° C. (10° C./min) and kept at this temperature for 10 min. Ultimately, CD and the powder blend were also heated to 182° C. (10° C./min) and kept at this temperature for 30 min.

Data set [4] is described as follows: Particle size analysis by laser light diffraction. The class given is physicochemical. The note with it: Fraunhofer method. As for the experimental part:
Laser diffraction measurements were performed with a LS 13 320 laser diffraction particle size analyzer equipped with a Tornado DPS module (Beckman Coulter Inc, Brea, CA, USA). Each API, excipient and the blend of batch P25/29-M were measured five times. Particle sizes were calculated using the Fraunhofer method.

A short description of data set [5]: Dissolution of printed tablets, Ph. Eur. 2.9.3, 0.1 M HCl, paddle 100 rpm, HPLC. The class given is physicochemical. As for the experimental part:
Dissolution experiments were carried out according to Ph. Eur. 10.6; 2.9.3 (EDQM, Ph. Eur.), with a Premiere 5100 Dissolution System (Distek Inc., North Brunswick Township, NJ, USA). […] The paddle speed was set to 100 rpm. Samples were taken after 5, 10, 15, 20, 30, 45, 60 and 90 min. A sinker was used for analyzes. For all small tablets and the large Oblongs a Distek “Japanese Basket” was used, whereas a custom 3D printed polylactic acid (PLA) sinker (not shown) was used for the large Cylinders and the large Donuts. If applicable, the dissolution profiles were compared using the f2 comparison (Moore and Flanner 1996).
The API content of the powder blend and the dissolution samples were analyzed and evaluated with a Nexera XR HPLC system and LabSolutions software version 6.83 (both Shimadzu Corp., Nakagyo-ku, Kyoto, Japan). The Nexera XR HPLC system consists of two degassing units (DGU-20A5R) and two HPLC-pumps (LC-20ADXR) as well as an autosampler (SIL-20ACXR) a column oven (FCV-34AH) and a communication bus module (CBM-20A). Samples were dissolved and diluted in 0.1 M HCl. Turbid samples were filtered through a 0.22 μm PTFE Filter. Prior to each analytical sequence, the column was equilibrated for 30 min and the autosampler purged for 5 min. HPLC samples were measured in duplicate with an injection volume of 20 μL. […]

Data set [6] is described as follows: Thermogravimetric analysis (TGA), thermal stability. The class given is physicochemical. The note with it: for temperature at which mass loss / decomposition starts (thermogram): 40 to 300° C. As for the experimental part:
TGA analyzes were carried out with a Discovery TGA (TA Instruments, Waters, LLC, U.S.A.) and data was collected and analyzed with TA Instruments Trios software and percent mass loss or onset temperature were calculated. Two different methods were utilized. Both APIs were subjected to a temperature ramp of 10° C./min starting at 40° C. and concluding at 300° C. in open aluminum pans. CD was additionally subjected to an isothermal stress test at 180° C. for 30 min.

Data set [7] can be described thus: Stability analysis: storage in constant climate chambers, API content by HPLC. The note with it: in P25/29-M small Donuts. The class given is physicochemical. As for the experimental part:
Small Donuts of P25/29-M were packed in FDS/Proud packaging material Unit Dose Bags (UDB) using a FDS II Proud 336 device (Baxter International Inc., Deerfield, Il, USA) or brown glass stored in constant climate chambers (KBF P 240 and KBF S 240; Binder GmbH; Tuttlingen, Germany). […] Samples packed in UDB were stored for 7 days or 28 days in each of the previously mentioned conditions. Samples in brown glass were stored for 28 days in the 25° C./60% RH condition. After storage, the API contents of the samples were analyzed via HPLC as described in 2.2.6. Each sampling time comprised three samples.

Where a name gives a salt, the structure may show the parent alone. Bounds are passed on as bounds.

For the compound `NC(CO)C(=O)NNCc1ccc(O)c(O)c1O` (stereo not shown) [BZ, Benserazide-HCl], the “substance lost during extrusion” value in data set [1] is listed as “More than 70%”.

With `C[C@@](Cc1ccc(O)c(O)c1)(NN)C(=O)O` [CD, Carbidopa], in data set [2], the “tolerance of the printing process (in words)” value was “degraded partially during the printing process”. Moreover, the “time of exposition until decomposition begins (isothermal DSC)” value in data set [3] (182° C. isothermal) fell in the range of 7 to 8 min. The “particle size d50” value in data set [4] was found to be 15.3 μm. Also, in data set [5] (CD, much higher extrusion temperatures (printing 180° C.)), the “substance lost during extrusion” value is 30-40%. Also, the “CD recovered from the completely dissolved tablets” value in data set [5] (after the printing process) was 60-70%. Moreover, the “loss in mass over the first 10 min (isothermal TGA)” value in data set [6] (180° C. isothermal) was “more than 20%”. Besides, the “mass loss in the thermogram (release of hydrate water)” value in data set [6] (between ca. 90-140° C., ramp 10° C./min) was “about 8%”. The “temperature at which mass loss / decomposition starts (thermogram)” value in data set [6] (ramp 10° C./min) is “about 195 °C”. Also, the “storage stability (in words)” value in data set [7] (brown glass, and 25/60, 7 in UDB) is listed as “moderate stability”.

On to `N[C@@H](Cc1ccc(O)c(O)c1)C(=O)O` [LD, Levodopa], for which the “tolerance of the printing process (in words)” value in data set [2] is recorded as “able to tolerate the printing temperature”. Further, in data set [3], the “temperature up to which no degradation was found (DSC and TGA)” value was more than 250 °C. Moreover, the “particle size d50” value in data set [4] is on record as 51.8 μm. The “temperature at which mass loss / decomposition starts (thermogram)” value in data set [6] (ramp 10° C./min) was “about 275 °C”. Also, in data set [7] (both conditions (25/60, 40/75) and packagings), the storage time tolerated result is given as “at least 28 days”.

For `OC[C@@H](O)[C@@H](O)[C@H](O)[C@H](O)CO` [mannitol, Mannitol], the “particle size d50” value in data set [4] is 345 μm.
